What was measured:
[1] = Cmax in male rat at 10 mg/kg, ip measured upto 24 hrs by LC/MS/MS analysis; format: ADME, organism-based; conditions: in vivo
[2] = AUC(0 to t) in male rat at 5 mg/kg, iv measured upto 24 hrs by LC/MS/MS analysis; format: ADME, organism-based; conditions: in vivo
MDA-MB-231 [3] = test: Induction of apoptosis in human MDA-MB-231 cells assessed as early apoptotic cells pretreated with Z-VAD-FMK at 5 uM measured after 24 hrs incubation by the annexin V/propidium iodide (PI) double staining assay (reference value: 2.37%); format: functional
[4] = Toxicity in female BALB/c-nude mouse assessed as histological change in liver at 15 to 30 mg/kg, ip once daily for 21 consecutive days by H and E staining based IHC analysis; format: organism-based; conditions: in vivo, 504 h, dose 15-30 mg/kg, time 21 day
[5] = AUC(0 to t) in male rat at 10 mg/kg, po measured upto 24 hrs by LC/MS/MS analysis; format: ADME, organism-based; conditions: in vivo
[6] = Half life in male rat at 5 mg/kg, iv measured upto 24 hrs by LC/MS/MS analysis; format: ADME, organism-based; conditions: in vivo
[7] = Antiproliferative activity against human MCF-10A cells assessed as cell viability incubated for 48 hrs measured after additional incubation with MTT; format: toxicity, cell-based
[8] = Toxicity in female BALB/c-nude mouse assessed as histological change in spleen at 15 to 30 mg/kg, ip once daily for 21 consecutive days by H and E staining based IHC analysis; format: organism-based; conditions: in vivo, 504 h, dose 15-30 mg/kg, time 21 day
MDA-MB-231 [9] = test: Induction of apoptosis in human MDA-MB-231 cells assessed as early apoptotic cells at 2.5 uM measured after 24 hrs incubation by the annexin V/propidium iodide (PI) double staining assay (reference value: 2.46%); format: functional
[10] = Cmax in male rat at 5 mg/kg, iv measured upto 24 hrs by LC/MS/MS analysis; format: ADME, organism-based; conditions: in vivo
MDA-MB-468 [11] = test: Induction of apoptosis in human MDA-MB-468 cells assessed as late apoptotic cells at 5 uM measured after 24 hrs incubation by the annexin V/propidium iodide (PI) double staining assay (reference value: 4.33%); format: functional
MDA-MB-468 [12] = test: Induction of apoptosis in human MDA-MB-468 cells assessed as late apoptotic cells pretreated with Z-VAD-FMK at 5 uM measured after 24 hrs incubation by the annexin V/propidium iodide (PI) double staining assay (reference value: 4.33%); format: functional
MDA-MB-231 [13] = test: Induction of apoptosis in human MDA-MB-231 cells assessed as late apoptotic cells at 5 uM measured after 24 hrs incubation by the annexin V/propidium iodide (PI) double staining assay (reference value: 3.08%); format: functional
[14] = Half life in male rat at 10 mg/kg, po measured upto 24 hrs by LC/MS/MS analysis; format: ADME, organism-based; conditions: in vivo
[15] = AUC(0 to infinity) in male rat at 5 mg/kg, iv measured upto 24 hrs by LC/MS/MS analysis; format: ADME, organism-based; conditions: in vivo
MDA-MB-468 [16] = test: Induction of apoptosis in human MDA-MB-468 cells assessed as early apoptotic cells at 2.5 uM measured after 24 hrs incubation by the annexin V/propidium iodide (PI) double staining assay (reference value: 3.98%); format: functional
MDA-MB-231 [17] = test: Induction of apoptosis in human MDA-MB-231 cells assessed as late apoptotic cells at 5 uM measured after 24 hrs incubation by the annexin V/propidium iodide (PI) double staining assay (reference value: 2.69%); format: functional
MDA-MB-468 [18] = test: Induction of apoptosis in human MDA-MB-468 cells assessed as early apoptotic cells at 5 uM measured after 24 hrs incubation by the annexin V/propidium iodide (PI) double staining assay (reference value: 3.98%); format: functional
MDA-MB-231 [19] = test: In vivo antitumor activity against human MDA-MB-231 cells assessed as tumor growth inhibition at 30 mg/kg, ip once daily for 21 consecutive days relative to control; format: functional; conditions: MDA-MB-231, 504 h, time 21 day, read-out: TGI
[20] = Tmax in male rat at 10 mg/kg, po measured upto 24 hrs by LC/MS/MS analysis; format: ADME, organism-based; conditions: in vivo
[21] = Toxicity in female BALB/c-nude mouse assessed as histological change in kidney at 15 to 30 mg/kg, ip once daily for 21 consecutive days by H and E staining based IHC analysis; format: organism-based; conditions: in vivo, 504 h, dose 15-30 mg/kg, time 21 day
[22] = AUC(0 to infinity) in male rat at 10 mg/kg, ip measured upto 24 hrs by LC/MS/MS analysis; format: ADME, organism-based; conditions: in vivo
[23] = AUC(0 to t) in male rat at 10 mg/kg, ip measured upto 24 hrs by LC/MS/MS analysis; format: ADME, organism-based; conditions: in vivo
MDA-MB-231 [24] = test: Induction of apoptosis in human MDA-MB-231 cells assessed as early apoptotic cells at 5 uM measured after 24 hrs incubation by the annexin V/propidium iodide (PI) double staining assay (reference value: 2.46%); format: functional
MDA-MB-231 [25] = test: Induction of apoptosis in human MDA-MB-231 cells assessed as late apoptotic cells at 2.5 uM measured after 24 hrs incubation by the annexin V/propidium iodide (PI) double staining assay (reference value: 2.69%); format: functional
MDA-MB-231 [26] = test: Induction of apoptosis in human MDA-MB-231 cells assessed as early apoptotic cells at 5 uM measured after 24 hrs incubation by the annexin V/propidium iodide (PI) double staining assay (reference value: 2.37%); format: functional
[27] = Tmax in male rat at 5 mg/kg, iv measured upto 24 hrs by LC/MS/MS analysis; format: ADME, organism-based; conditions: in vivo
[28] = Tmax in male rat at 10 mg/kg, ip measured upto 24 hrs by LC/MS/MS analysis; format: ADME, organism-based; conditions: in vivo
MDA-MB-231 [29] = test: Induction of apoptosis in human MDA-MB-231 cells assessed as late apoptotic cells pretreated with Z-VAD-FMK at 5 uM measured after 24 hrs incubation by the annexin V/propidium iodide (PI) double staining assay (reference value: 3.08%); format: functional
MDA-MB-468 [30] = test: Induction of apoptosis in human MDA-MB-468 cells assessed as late apoptotic cells at 2.5 uM measured after 24 hrs incubation by the annexin V/propidium iodide (PI) double staining assay (reference value: 3.64%); format: functional
[31] = Toxicity in female BALB/c-nude mouse assessed as histological change in heart at 15 to 30 mg/kg, ip once daily for 21 consecutive days by H and E staining based IHC analysis; format: organism-based; conditions: in vivo, 504 h, dose 15-30 mg/kg, time 21 day
L02 = test: Antiproliferative activity against human L02 cells assessed as cell viability incubated for 48 hrs measured after additional incubation with MTT; format: functional, cell-based; conditions: L02, 48 h
[32] = Oral bioavailability in male rat at 10 mg/kg measured upto 24 hrs by LC/MS/MS analysis; format: ADME, organism-based; conditions: in vivo
[33] = AUC(0 to infinity) in male rat at 10 mg/kg, po measured upto 24 hrs by LC/MS/MS analysis; format: ADME, organism-based; conditions: in vivo
[34] = Toxicity in female BALB/c-nude mouse assessed as histological change in lung at 15 to 30 mg/kg, ip once daily for 21 consecutive days by H and E staining based IHC analysis; format: organism-based; conditions: in vivo, 504 h, dose 15-30 mg/kg, time 21 day
MDA-MB-231 [35] = test: Antiproliferative activity against human MDA-MB-231 cells assessed as cell viability incubated for 48 hrs measured after additional incubation with MTT; format: functional, cell-based; conditions: MDA-MB-231, 48 h
MDA-MB-468 [36] = test: Induction of apoptosis in human MDA-MB-468 cells assessed as late apoptotic cells at 5 uM measured after 24 hrs incubation by the annexin V/propidium iodide (PI) double staining assay (reference value: 3.64%); format: functional
[37] = Cmax in male rat at 10 mg/kg, po measured upto 24 hrs by LC/MS/MS analysis; format: ADME, organism-based; conditions: in vivo
MDA-MB-468 [38] = test: Induction of apoptosis in human MDA-MB-468 cells assessed as early apoptotic cells at 5 uM measured after 24 hrs incubation by the annexin V/propidium iodide (PI) double staining assay (reference value: 2.36%); format: functional
MDA-MB-468 [39] = test: Antiproliferative activity against human MDA-MB-468 cells assessed as cell viability incubated for 48 hrs measured after additional incubation with MTT; format: functional, cell-based; conditions: MDA-MB-468, 48 h
MDA-MB-231 [40] = test: In vivo antitumor activity against human MDA-MB-231 cells assessed as tumor growth inhibition at 15 mg/kg, ip once daily for 21 consecutive days relative to control; format: functional; conditions: MDA-MB-231, 504 h, time 21 day, read-out: TGI
[41] = Half life in male rat at 10 mg/kg, ip measured upto 24 hrs by LC/MS/MS analysis; format: ADME, organism-based; conditions: in vivo
MDA-MB-468 [42] = test: Induction of apoptosis in human MDA-MB-468 cells assessed as early apoptotic cells pretreated with Z-VAD-FMK at 5 uM measured after 24 hrs incubation by the annexin V/propidium iodide (PI) double staining assay (reference value: 2.36%); format: functional

CC(C)C[C@@H](CO)N1CCc2c(oc3c2C(=O)C(=O)c2ccccc2-3)C1
Cmax [1]: 232 ng/mL | AUC(0-t) at 24 h [2]: 536 ng·h/mL | Activity (MDA-MB-231 [3]): 4.68% | Activity [4]: Non-Toxic | AUC(0-t) at 24 h [5]: 55.1 ng·h/mL | half-life [6]: 7.9 h | IC50 at 48 h [7]: > 20 µM | Activity [8]: Non-Toxic | Activity (MDA-MB-231 [9]): 3.35% | Cmax [10]: 348 ng/mL | Activity (MDA-MB-468 [11]): 17.13% | Activity (MDA-MB-468 [12]): 15.38% | Activity (MDA-MB-231 [13]): 25.51% | half-life [14]: 7.1 h | AUC(0-inf) [15]: 618 ng·h/mL | Activity (MDA-MB-468 [16]): 3.86% | Activity (MDA-MB-231 [17]): 29.24% | Activity (MDA-MB-468 [18]): 16.47% | inhibition in vivo at 30 mg/kg (MDA-MB-231 [19]): 60.4% | Tmax [20]: 0.2 h | Activity [21]: Non-Toxic | AUC(0-inf) [22]: 490 ng·h/mL | AUC(0-t) at 24 h [23]: 436 ng·h/mL | Activity (MDA-MB-231 [24]): 5.86% | Activity (MDA-MB-231 [25]): 3.48% | Activity (MDA-MB-231 [26]): 3.97% | Tmax [27]: 4.2 min | Tmax [28]: 6 min | Activity (MDA-MB-231 [29]): 13.57% | Activity (MDA-MB-468 [30]): 4.6% | Activity [31]: Non-Toxic | IC50 (L02): > 20 µM | bioavailability [32]: 5.1% | AUC(0-inf) [33]: 56.7 ng·h/mL | Activity [34]: Non-Toxic | IC50 (MDA-MB-231 [35]): 2.05 µM | Activity (MDA-MB-468 [36]): 19.37% | Cmax [37]: 67.8 ng/mL | Activity (MDA-MB-468 [38]): 22.31% | IC50 (MDA-MB-468 [39]): 7.54 µM | inhibition in vivo at 15 mg/kg (MDA-MB-231 [40]): 42.2% | half-life [41]: 7.9 h | Activity (MDA-MB-468 [42]): 11.06%
